Biological target: T1, MAP3K5 (ASK1) (Homo sapiens, UniProt Q99683)
T1 construct: purchased Thermo Fisher Scientific (Life Technologies) SelectScreen
Experiment: SelectScreen LanthaScreen
Type: binding
Conditions: read-out: % displacement
How it was run: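 NU5455 was profiled across the SelectScreen Broad panel of kinase activity and binding assays. Z'LYTE reactions such as CSF1R ran at apparent Km ATP, while the Adapta CAMK1 assay used ATP listed as 10. Values are given as percent.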

T1 sequence (Q99683 whole entry): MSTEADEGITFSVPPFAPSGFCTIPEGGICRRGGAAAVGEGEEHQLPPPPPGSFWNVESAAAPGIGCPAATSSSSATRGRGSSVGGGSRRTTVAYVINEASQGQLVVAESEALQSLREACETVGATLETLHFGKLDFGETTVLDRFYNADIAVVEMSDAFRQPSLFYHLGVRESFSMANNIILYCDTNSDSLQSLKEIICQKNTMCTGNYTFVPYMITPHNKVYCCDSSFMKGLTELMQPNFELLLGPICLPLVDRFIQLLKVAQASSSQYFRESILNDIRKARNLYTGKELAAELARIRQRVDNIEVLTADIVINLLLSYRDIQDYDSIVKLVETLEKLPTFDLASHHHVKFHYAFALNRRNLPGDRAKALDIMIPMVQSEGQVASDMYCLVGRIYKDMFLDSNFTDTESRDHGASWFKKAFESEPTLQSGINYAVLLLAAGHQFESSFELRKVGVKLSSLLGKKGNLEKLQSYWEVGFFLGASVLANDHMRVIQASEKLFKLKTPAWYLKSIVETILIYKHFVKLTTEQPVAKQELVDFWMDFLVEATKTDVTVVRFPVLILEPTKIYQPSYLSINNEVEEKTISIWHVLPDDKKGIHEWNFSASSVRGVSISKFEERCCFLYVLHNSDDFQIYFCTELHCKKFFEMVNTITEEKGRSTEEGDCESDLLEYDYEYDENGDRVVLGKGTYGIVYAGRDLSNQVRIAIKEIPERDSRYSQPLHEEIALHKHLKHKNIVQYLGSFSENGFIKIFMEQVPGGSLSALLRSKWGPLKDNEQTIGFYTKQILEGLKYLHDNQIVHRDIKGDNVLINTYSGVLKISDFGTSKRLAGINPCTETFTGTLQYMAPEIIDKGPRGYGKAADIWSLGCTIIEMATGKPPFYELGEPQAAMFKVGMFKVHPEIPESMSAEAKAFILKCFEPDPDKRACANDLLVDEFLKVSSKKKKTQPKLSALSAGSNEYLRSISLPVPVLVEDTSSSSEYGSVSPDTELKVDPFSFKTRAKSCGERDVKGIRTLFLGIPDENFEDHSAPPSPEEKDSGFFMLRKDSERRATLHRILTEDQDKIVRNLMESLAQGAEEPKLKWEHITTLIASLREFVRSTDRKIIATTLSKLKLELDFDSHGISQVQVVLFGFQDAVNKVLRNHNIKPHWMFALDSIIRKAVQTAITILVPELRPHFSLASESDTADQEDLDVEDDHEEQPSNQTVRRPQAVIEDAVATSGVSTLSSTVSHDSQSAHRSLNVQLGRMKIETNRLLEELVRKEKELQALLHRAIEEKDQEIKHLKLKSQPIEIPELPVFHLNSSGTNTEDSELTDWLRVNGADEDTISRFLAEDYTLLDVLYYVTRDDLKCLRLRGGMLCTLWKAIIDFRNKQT

CN(C(=O)CN1CCOCC1)c1ccc2sc3c(-c4cccc5c(=O)cc(N6CC7CCC(C6)O7)oc45)cccc3c2c1 [NU5455]
inhibition at 1 µM: 2.3%

From article PMC6934184, “Selective DNA-PKcs inhibition extends the therapeutic index of localized radiotherapy and chemotherapy” (The Journal of Clinical Investigation, 2019)
